Read-outs that look alike come from different tables or passages of the source.
Legend:
galactose oxidase [1] = type: biochemical, Gibberella fujikuroi Y-530929; details: 25° C., pH 7.0
galactose oxidase [2] = test: Substrate specificity of galactose oxidase (quinoneimine colorimetric assay)

| Structure (SMILES) | Inhibition rate (galactose oxidase [1]) [%] | action of the enzyme on the substrate (galactose oxidase [2]) | also measured |
| --- | --- | --- | --- |
| O=[N+]([O-])[O-].[Ag+] [AgNO3] | 100 | – | – |
| O=C(O)CN(CCN(CC(=O)O)CC(=O)O)CC(=O)O [EDTA, ethylenediaminetetraacetic acid] | – | – | Inhibition rate (galactose oxidase [1]; inhibitor 10^-3 M): 52% |
| NO [NH2 OH] | 100 | – | – |
| [N-]=[N+]=[N-].[Na+] [NaN3] | 94 | – | – |
| O=C(O)c1cc[c]([Hg][Cl])cc1 [PCMB, parachloromercurybenzoate] | 57 | – | – |
| O=C(CO)CO [dihydroxyacetone] | – | acts on | – |
| OC[C@H]1O[C@H](OC[C@H]2OC(O)[C@H](O)[C@@H](O)[C@@H]2O)[C@H](O)[C@@H](O)[C@H]1O (stereo partly drawn) [melibiose] | – | acts on | – |
| c1cnc2c(c1)ccc1cccnc12 [o-phenanthroline] | – | – | Inhibition rate (galactose oxidase [1]; inhibitor 10^-3 M): 68% |
| OC[C@H]1O[C@H](OC[C@H]2O[C@H](O[C@]3(CO)O[C@H](CO)[C@@H](O)[C@@H]3O)[C@H](O)[C@@H](O)[C@@H]2O)[C@H](O)[C@@H](O)[C@H]1O [raffinose] | – | acts on | – |
